Measurements: PubChem BioAssay AID330 (DTP/NCI, 2004)
Values joined by “and” are separate entries in the source; they are usually repeats but may differ in a detail not shown here. Equal values may be shown once. Toxic doses and inconclusive results are not listed.

Tested on: P388 leukemia ip, CD2F1 mice, survival T/C
Experiment: NCI In Vivo Anticancer Drug Screen. Data for tumor model P388 Leukemia (intraperitoneal) in CD2F1 (CDF1) mice
Conditions: endpoint: median survival time, higher = longer survival
Outline: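 Mice carrying the transplanted tumor received test compound or vehicle. Survival was recorded in each group, and the value is the treated-group measurement divided by that of the vehicle-treated control group.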

Which T/C (dose: 0.25 mg/kg/injection, schedule: Q01DX009 (ip), vehicle: saline) does the source give for `N[C@@H](Cc1ccc(N(CCCl)CCCl)cc1)C(=O)O` here?
Its T/C is 152 % of control.

And the T/C (dose: 0.25 mg/kg/injection, schedule: Q01DX009 (ip), vehicle: suspension in saline)?
The T/C was 117 % of control.

And the T/C (dose: 0.25 mg/kg/injection, schedule: Q03HX008 (ip), vehicle: saline)?
The T/C was 165 % of control.

What about the T/C (dose: 0.38 mg/kg/injection, schedule: Q01DX005 (ip), vehicle: saline) of the same compound?
Its T/C is 154 % of control.

And the T/C (dose: 0.5 mg/kg/injection, schedule: Q01DX005 (ip), vehicle: saline)?
Its T/C is 153 % of control and 189 % of control.

What about the T/C (dose: 0.5 mg/kg/injection, schedule: Q01DX009 (ip), vehicle: saline) of the same compound?
The T/C was 163 % of control and 170 % of control.

And the T/C (dose: 0.5 mg/kg/injection, schedule: Q01DX009 (ip), vehicle: suspension in saline)?
Its T/C is 123 % of control.

And the T/C (dose: 0.5 mg/kg/injection, schedule: Q03HX008 (ip), vehicle: saline)?
Its T/C is 190 % of control.

And the T/C (dose: 0.5 mg/kg/injection, schedule: Q04DX003 (ip), vehicle: water)?
The T/C was 150 % of control.

And the T/C (dose: 0.54 mg/kg/injection, schedule: Q01DX009 (ip), vehicle: saline)?
The T/C was 175 % of control.

And the T/C (dose: 0.75 mg/kg/injection, schedule: Q01DX005 (ip), vehicle: saline)?
The T/C was 172 % of control.

And the T/C (dose: 0.75 mg/kg/injection, schedule: Q04DX003 (ip), vehicle: saline)?
The T/C was 150 % of control.

And the T/C (dose: 0.9 mg/kg/injection, schedule: Q01DX009 (ip), vehicle: saline)?
The T/C was 193 % of control.

And the T/C (dose: 1.0 mg/kg/injection, schedule: Q01DX005 (ip), vehicle: water)?
The T/C was 167 % of control.

What about the T/C (dose: 1.0 mg/kg/injection, schedule: Q01DX009 (ip), vehicle: Klucel (hydroxypropylcellulose) (HPC)) of the same compound?
The T/C was 222 % of control.

And the T/C (dose: 1.0 mg/kg/injection, schedule: Q01DX009 (ip), vehicle: saline)?
Its T/C is 193 % of control and 209 % of control and 227 % of control.

And the T/C (dose: 1.0 mg/kg/injection, schedule: Q01DX009 (ip), vehicle: suspension in saline)?
Its T/C is 163 % of control.

What about the T/C (dose: 1.0 mg/kg/injection, schedule: Q04DX003 (ip), vehicle: saline) of the same compound?
Its T/C is 176 % of control.

What about the T/C (dose: 1.0 mg/kg/injection, schedule: Q04DX003 (ip), vehicle: water) of the same compound?
The T/C was 162 % of control.

What about the T/C (dose: 1.25 mg/kg/injection, schedule: Q04DX003 (ip), vehicle: saline) of the same compound?
The T/C was 176 % of control.

And the T/C (dose: 1.25 mg/kg/injection, schedule: Q04DX003 (ip), vehicle: water)?
Its T/C is 158 % of control and 200 % of control.

What about the T/C (dose: 1.25 mg/kg/injection, schedule: Q04DX003 (iv), vehicle: saline) of the same compound?
Its T/C is 124 % of control.

What about the T/C (dose: 1.5 mg/kg/injection, schedule: Q01DX005 (ip), vehicle: saline) of the same compound?
The T/C was 203 % of control.

And the T/C (dose: 1.5 mg/kg/injection, schedule: Q01DX009 (ip), vehicle: Klucel (hydroxypropylcellulose) (HPC))?
Its T/C is 101 % of control.

And the T/C (dose: 1.5 mg/kg/injection, schedule: Q01DX009 (ip), vehicle: saline)?
Its T/C is 227 % of control.

And the T/C (dose: 1.5 mg/kg/injection, schedule: Q04DX003 (ip), vehicle: Klucel (hydroxypropylcellulose) (HPC))?
Its T/C is 225 % of control.

What about the T/C (dose: 1.5 mg/kg/injection, schedule: Q04DX003 (ip), vehicle: saline) of the same compound?
Its T/C is 174 % of control.

What about the T/C (dose: 1.62 mg/kg/injection, schedule: Q04DX003 (ip), vehicle: saline) of the same compound?
Its T/C is 180 % of control.

What about the T/C (dose: 1.62 mg/kg/injection, schedule: Q04DX003 (ip), vehicle: water) of the same compound?
Its T/C is 191 % of control.

What about the T/C (dose: 1.7 mg/kg/injection, schedule: Q04DX003 (ip), vehicle: saline) of the same compound?
The T/C was 174 % of control.

What about the T/C (dose: 1.94 mg/kg/injection, schedule: Q04DX002 (ip), vehicle: saline) of the same compound?
The T/C was 190 % of control and 192 % of control and 206 % of control.

What about the T/C (dose: 1.94 mg/kg/injection, schedule: Q04DX003 (ip), vehicle: saline) of the same compound?
The T/C was 186 % of control.

And the T/C (dose: 2.0 mg/kg/injection, schedule: Q01DX009 (ip), vehicle: saline)?
Its T/C is 236 % of control and 254 % of control.

What about the T/C (dose: 2.0 mg/kg/injection, schedule: Q01DX009 (ip), vehicle: suspension in saline) of the same compound?
Its T/C is 174 % of control and 221 % of control.

And the T/C (dose: 2.0 mg/kg/injection, schedule: Q04DX003 (ip), vehicle: saline)?
Its T/C is 196 % of control and 199 % of control and 200 % of control.

And the T/C (dose: 2.0 mg/kg/injection, schedule: Q04DX003 (ip), vehicle: water)?
Its T/C is 189 % of control.

What about the T/C (dose: 2.2 mg/kg/injection, schedule: Q01DX005 (ip), vehicle: saline) of the same compound?
The T/C was 165 % of control and 203 % of control.

What about the T/C (dose: 2.5 mg/kg/injection, schedule: Q01DX001 (ip), vehicle: Klucel (hydroxypropylcellulose) (HPC)) of the same compound?
Its T/C is 207 % of control.

And the T/C (dose: 2.7 mg/kg/injection, schedule: Q04DX003 (ip), vehicle: saline)?
The T/C was 194 % of control and 250 % of control.

What about the T/C (dose: 2.7 mg/kg/injection, schedule: Q04DX003 (ip), vehicle: water) of the same compound?
Its T/C is 233 % of control.

What about the T/C (dose: 3.0 mg/kg/injection, schedule: Q04DX003 (ip), vehicle: Klucel (hydroxypropylcellulose) (HPC)) of the same compound?
Its T/C is 119 % of control.

What about the T/C (dose: 3.0 mg/kg/injection, schedule: Q04DX003 (ip), vehicle: saline) of the same compound?
Its T/C is 196 % of control.

And the T/C (dose: 3.24 mg/kg/injection, schedule: Q04DX002 (ip), vehicle: saline)?
The T/C was 202 % of control and 213 % of control and 243 % of control.

And the T/C (dose: 3.24 mg/kg/injection, schedule: Q04DX003 (ip), vehicle: saline)?
The T/C was 220 % of control and 227 % of control.

And the T/C (dose: 3.6 mg/kg/injection, schedule: Q01DX005 (ip), vehicle: saline)?
The T/C was 165 % of control and 233 % of control.

What about the T/C (dose: 3.7 mg/kg/injection, schedule: Q04DX003 (ip), vehicle: saline) of the same compound?
The T/C was 220 % of control.

And the T/C (dose: 3.75 mg/kg/injection, schedule: Q04DX003 (ip), vehicle: distilled water + Tween-80)?
The T/C was 215 % of control.

What about the T/C (dose: 4.0 mg/kg/injection, schedule: Q01DX001 (ip), vehicle: suspension in saline) of the same compound?
The T/C was 183 % of control.

What about the T/C (dose: 4.0 mg/kg/injection, schedule: Q01DX009 (ip), vehicle: Klucel (hydroxypropylcellulose) (HPC)) of the same compound?
The T/C was 161 % of control.

What about the T/C (dose: 4.0 mg/kg/injection, schedule: Q01DX009 (ip), vehicle: saline) of the same compound?
The T/C was 166 % of control.

And the T/C (dose: 4.0 mg/kg/injection, schedule: Q01DX009 (ip), vehicle: suspension in saline)?
The T/C was 169 % of control and 238 % of control.

What about the T/C (dose: 4.0 mg/kg/injection, schedule: Q04DX003 (ip), vehicle: saline) of the same compound?
Its T/C is 199 % of control and 211 % of control and 240 % of control.

What about the T/C (dose: 4.0 mg/kg/injection, schedule: Q04DX003 (ip), vehicle: water) of the same compound?
The T/C was 225 % of control.

And the T/C (dose: 4.5 mg/kg/injection, schedule: Q04DX003 (ip), vehicle: saline)?
Its T/C is 240 % of control.

And the T/C (dose: 5.0 mg/kg/injection, schedule: Q01DX001 (ip), vehicle: saline)?
Its T/C is 208 % of control.

And the T/C (dose: 5.0 mg/kg/injection, schedule: Q04DX003 (iv), vehicle: saline)?
Its T/C is 194 % of control.

And the T/C (dose: 5.4 mg/kg/injection, schedule: Q04DX002 (ip), vehicle: saline)?
Its T/C is 254 % of control.

And the T/C (dose: 6.0 mg/kg/injection, schedule: Q01DX005 (ip), vehicle: saline)?
The T/C was 226 % of control.

What about the T/C (dose: 6.0 mg/kg/injection, schedule: Q04DX003 (ip), vehicle: Klucel (hydroxypropylcellulose) (HPC)) of the same compound?
Its T/C is 117 % of control.

And the T/C (dose: 6.0 mg/kg/injection, schedule: Q04DX003 (ip), vehicle: saline)?
Its T/C is 218 % of control.

What about the T/C (dose: 6.7 mg/kg/injection, schedule: Q01DX001 (ip), vehicle: saline) of the same compound?
Its T/C is 185 % of control.

And the T/C (dose: 7.3 mg/kg/injection, schedule: Q04DX003 (ip), vehicle: saline)?
The T/C was 239 % of control.

And the T/C (dose: 8.0 mg/kg/injection, schedule: Q01DX009 (ip), vehicle: Klucel (hydroxypropylcellulose) (HPC))?
The T/C was 109 % of control.

And the T/C (dose: 8.0 mg/kg/injection, schedule: Q01DX009 (ip), vehicle: saline)?
The T/C was 99 % of control and 100 % of control.

What about the T/C (dose: 8.0 mg/kg/injection, schedule: Q01DX009 (ip), vehicle: suspension in saline) of the same compound?
The T/C was 104 % of control and 108 % of control.

What about the T/C (dose: 10.0 mg/kg/injection, schedule: Q01DX001 (iv), vehicle: saline) of the same compound?
The T/C was 185 % of control.

And the T/C (dose: 10.0 mg/kg/injection, schedule: Q04DX003 (iv), vehicle: saline)?
Its T/C is 100 % of control.

What about the T/C (dose: 12.5 mg/kg/injection, schedule: Q04DX003 (ip), vehicle: saline) of the same compound?
Its T/C is 152 % of control.

And the T/C (dose: 12.6 mg/kg/injection, schedule: Q04DX003 (ip), vehicle: saline)?
The T/C was 239 % of control.

And the T/C (dose: 15.0 mg/kg/injection, schedule: Q04DX002 (ip), vehicle: saline)?
The T/C was 101 % of control and 109 % of control.

What about the T/C (dose: 15.0 mg/kg/injection, schedule: Q04DX003 (ip), vehicle: saline) of the same compound?
Its T/C is 108 % of control.

And the T/C (dose: 16.0 mg/kg/injection, schedule: Q04DX003 (ip), vehicle: water)?
Its T/C is 115 % of control.

And the T/C (dose: 17.5 mg/kg/injection, schedule: Q01DX001 (ip), vehicle: saline)?
Its T/C is 243 % of control.

And the T/C (dose: 18.9 mg/kg/injection, schedule: Q04DX003 (ip), vehicle: saline)?
The T/C was 107 % of control.

And the T/C (dose: 24.0 mg/kg/injection, schedule: Q04DX003 (ip), vehicle: saline)?
Its T/C is 107 % of control.

Which T/C (dose: 15.0 mg/kg/injection, schedule: Q01DX005 (ip), vehicle: Klucel (hydroxypropylcellulose) (HPC)) does the source give for `O=C1C(c2ccc3ccccc3n2)=C(O)c2ccccc21` here?
The T/C was 101 % of control.

What about the T/C (dose: 30.0 mg/kg/injection, schedule: Q01DX005 (ip), vehicle: Klucel (hydroxypropylcellulose) (HPC)) of the same compound?
The T/C was 96 % of control.

What about the T/C (dose: 60.0 mg/kg/injection, schedule: Q01DX005 (ip), vehicle: Klucel (hydroxypropylcellulose) (HPC)) of the same compound?
The T/C was 101 % of control and 88 % of control.

How did the T/C (dose: 100.0 mg/kg/injection, schedule: Q01DX001 (ip), vehicle: saline with Tween-80) turn out when `Nc1ccc(S(=O)(=O)NCCO)cc1[N+](=O)[O-]` was run?
The T/C was 95 % of control.

And the T/C (dose: 200.0 mg/kg/injection, schedule: Q01DX001 (ip), vehicle: saline with Tween-80)?
Its T/C is 100 % of control.

What about the T/C (dose: 400.0 mg/kg/injection, schedule: Q01DX001 (ip), vehicle: saline with Tween-80) of the same compound?
The T/C was 100 % of control.
